From publication PMC10094929, “Determination of Phenol with Peroxidase Immobilized on CaCO3” (International Journal of Molecular Sciences, 2023)

Tested on: T1, native peroxidase (horseradish peroxidase)
T1 construct: gene PRXC1A
Settings: free enzyme; phenol varied; 4-aminoantipyrine 0.3 mmol/L, hydrogen peroxide 4.68 mmol/L; 0.1 M phosphate-buffered saline pH 7.2; 24 °C

For `Oc1ccccc1` [phenol], the Km was 994 µM.
